Patent US20210253511A1, “COMPOUNDS AND USES FOR THE TREATMENT AND PREVENTION OF DISEASES AND CONDITIONS ASSOCIATE WITH OR AGGREVATED BY IMPARED MITOPHAGY” (Yissum Research Development Company of The Hebrew …, priority 2018, published 2021)

Tested on: C. elegans worms in 200 mM paraquat (PQ)
Assay: Paraquat survival assay
Format: in vivo
Conditions: 200 mM PQ; for protective effect on worms' survival in PQ (figure legend): concentration not given, log-rank test
Protocol: C. elegans strains were grown at 21° C. on nematode growth media (NGM) agar plates containing diamines or vehicle as a control. The NGM agar plates were prepared as described in L. Livshits, E. Gross, A method for measuring sulfide toxicity in the nematode Caenorhabditis elegans, MethodsX 4 (2017) 250-255. A suspension of 3 g sodium chloride (NaCl), 20 g Bacto agar, and 2.5 g of Bacto peptone in 1 L of double distilled water (DDW) was mixed and autoclaved. Then, the medium was cooled to 55° C. and supplemented with 1 ml of 100 mM CaCl2), 1 ml of 100 mM MgSO4, 25 ml of 1 M potassium phosphate buffer pH 6, and 1 ml of 5 mg/ml cholesterol (the cholesterol was dissolved in ethanol). Diamines or DDW (vehicle) were added to the NGM-agar solution. For RNAi NGM-agar plates, Isopropyl β-D-1-thiogalactopyranoside (IPTG) and ampicillin were added to a final concentration of 1 mM and 100 μg/ml, respectively. The NGM-agar solution was thoroughly vortex mixed and immediately poured into 35 mm petri dish (4 ml per plate). NGM-plates were covered with aluminum foil and dried for 24 h at room temperature (RT). 24 h before the experiment, plates were seeded with 100 μl bacteria (OD600=0.6, OP50 or HT115(DE3)). The seeded plates were covered with aluminum foil and dried for 24 h at RT.
To get synchronized C. elegans larvae, the method described in W. B. Wood, The Nematode Caenorhabditis Elegans, Cold Spring Harbor Laboratory 1988, was performed. In brief, hypochlorite/NaOH solution was made by mixing 1 ml of 5% solution of sodium hypochlorite, 800 μl of 2.5 N NaOH and 2.2 ml DDW to final concentrations of 0.5 N NaOH and 1.25% sodium hypochlorite. M9 buffer was made by dissolving 3 g KH2PO4, 6 g Na2HPO4, 5 g NaCl and 1 ml of MgSO4 from 1M stock in 1 litter of DDW. The solution pH was adjusted to 7 and sterilizes by filtration (with a 0.2 µm filter bottle). Gravid hermaphrodites was washed from the NGM plates into a 15 ml tube with M9 buffer and centrifuged for 2 min at 900×g, RT. Liquid was removed until 2 ml worms' suspension was left and added 2 ml of hypochlorite/NaOH solution. A 5 ml syringe with a 21-gauge needle was used to aspirate the worm suspension back and forth several times. After 3 min it was observed the state of the worms using a dissecting stereoscope. At this stage, approximately 50% of worms should appear broken and many of the embryos should float in the solution. The embryos were immediately sedimented using centrifugation (1690×g for 2 min) and carefully removed the supernatant and add 10 ml of M9 buffer. This washing step was repeated three additional times. The supernatant was removed until 2 ml remains and rotated the tube for 16 h at RT. The hatched L larvae were collected by centrifugation (1690×g for 3 min) and put ˜80 L in each seeded NGM assay plate. Grow the L1 (Day 1) for 3 days until they become young adults (Day 3).

[1] = compound at 0.25 mM, vs control worms
[2] = compound at 4 mM, vs control worms
[3] = tested at 0.0625 mM and 0.25 mM, not split

Compound	survival of worms in paraquat [1]	survival of worms in paraquat [2]	protective effect on worms' survival in PQ (figure legend)	survival of worms in paraquat (compound at 0.0625 mM, vs control worms)	survival of worms in paraquat [3]
NCCCCCCN [1,6-Diaminohexane]	did not have any effect	did not have any effect			
N=C(N)NCCCCCCNC(=N)N [1,6-Diguanidinohexane]	significantly improve the survival of worms		significant protective effect	significantly improve the survival of worms	
NOCCCCCCCCON [1,8-diaminooxy-octane]			significant protective effect		significantly improved the survival of worms in PQ
N=C(N)NCCCCCCCCNC(=N)N [1,8-diguanidinooctane]			significant protective effect		significantly improved the survival of worms in PQ
NOCCCCCCCCCON [1,9-diaminooxy-nonane]			significant protective effect		significantly improved the survival of worms in PQ
NCCCCCCCCCCN [1,10-Diaminodecane]	significantly improved worms' survival	significantly decreased worms' survival			
NCCCCCCCCCCCCN [1,12-Diaminododecane]	did not	significantly improved their survival			
